Target: Plasminogen activator inhibitor 1 (Homo sapiens, UniProt P05121)
Experiment: Inhibitory concentration required against Plasminogen activator inhibitor 1.

Plasminogen activator inhibitor 1, sequence (P05121 whole entry): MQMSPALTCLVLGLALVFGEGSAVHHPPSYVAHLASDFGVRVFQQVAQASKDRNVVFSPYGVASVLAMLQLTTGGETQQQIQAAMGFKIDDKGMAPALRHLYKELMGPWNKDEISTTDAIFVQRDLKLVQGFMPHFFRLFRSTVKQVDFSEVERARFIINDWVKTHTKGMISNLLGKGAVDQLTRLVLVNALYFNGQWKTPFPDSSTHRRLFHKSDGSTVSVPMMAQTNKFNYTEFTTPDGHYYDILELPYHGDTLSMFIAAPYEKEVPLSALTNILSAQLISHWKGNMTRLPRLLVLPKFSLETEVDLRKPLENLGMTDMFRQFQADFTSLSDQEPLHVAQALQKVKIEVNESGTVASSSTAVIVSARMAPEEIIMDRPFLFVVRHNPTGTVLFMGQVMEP

Row | IC50 [µM] | SMILES
1 | 9.8 | COc1cccc(-c2[nH]c(=O)c3ccccc3c2O)c1
2 | 23.6 | Oc1nc(-c2ccc(Cl)cc2)c(O)c2ccccc12
3 | 13.7 | O=C(Nc1cc(C(F)(F)F)cc(C(F)(F)F)c1)c1nc(O)c2ccccc2c1O
4 | 50 | Oc1nc(-c2ccccc2)c(O)c2ccccc12
5 | 39.5 | O=c1[nH]c(-c2ccc(F)cc2)c(O)c2ccccc12
6 | 24 | O=C(Nc1ccc(Cl)cc1)c1nc(O)c2ccccc2c1O
7 | 14 | O=C(Nc1ccc(Cl)c(Cl)c1)c1nc(O)c2ccccc2c1O

Second part, the compound before the results:

Row | SMILES | IC50 [µM]
8 | O=C(Nc1ccc(/C=C2\NC(=O)c3ccccc3C2=O)cc1)c1cccs1 | 4
9 | O=c1[nH]/c(=C\c2nccs2)c(=O)[nH]/c1=C\c1ccc(OCCCc2cccnc2)cc1 | 0.6
10 | O=C(Nc1ccc(/C=C2\NC(=O)c3ccccc3C2=O)cc1)c1ccccc1 | 8.6
11 | O=C(Nc1ccc(Oc2ccc(OC(F)(F)F)cc2)cc1)c1[nH]c(=O)c2ccccc2c1O | 1
12 | O=C(Nc1ccc(/C=C2\NC(=O)c3ccccc3C2=O)cc1)c1ccco1 | 1.9
13 | O=C1N/C(=C\c2ccc(OCCCc3cccnc3)cc2)C(=O)c2ccccc21 | 18
14 | O=c1[nH]/c(=C\c2ccc(OCCCc3cccnc3)cc2)c(=O)[nH]/c1=C\c1ccccc1 | 1
15 | O=c1[nH]/c(=C\c2ccccn2)c(=O)[nH]/c1=C\c1ccc(OCCCc2cccnc2)cc1 | 0.3
16 | O=c1[nH]/c(=C\c2ccc(OCCCc3cccnc3)cn2)c(=O)[nH]/c1=C\c1ccccc1 | > 50
17 | Cn1c(=O)/c(=C/c2ccc(OCCCc3cccnc3)cc2)[nH]c(=O)/c1=C/c1ccccc1 | 12
